{
  "source": "patent US7964621B2",
  "about": "“Thioamide compounds, method of making and method of using thereof” (Merial Limited, priority 2008, dated 2011)",
  "data": [
    {"system": "Haemonchus contortus", "assay": "Method B: screening against Haemonchus contortus in vivo on Mongolian jirds (Meriones unguiculatus)", "conditions": "oral gavage, dose as low as 1 or 10 mg/kg, necropsy 3 days after treatment, vs placebo control group", "description": "Method B: Screening Method to Test Activity of Compounds Against Haemonchus contortus in Vivo on Mongolian Jirds (Meriones unguiculatus). Mongolian jirds, at least five weeks old, were immunosuppressed and artificially infected with ca. 1000 ensheathed Haemonchus contortus third instar larvae. Six days after infection, the jirds were treated by oral gavage with the test compounds, dissolved in a mixture of 2 parts DMSO and 1 part polyethylene glycol (PEG400), at doses of 100 mg/kg and 10 mg/kg. Jirds treated only with the placebo (2 parts DMSO and 1 part PEG400) served as controls. On day 9 (3 days after treatment) the jirds were euthanized and necropsied for recovery of parasites from the stomach. Efficacy was calculated as the average % reduction in the number of worms in each test group compared with the average number of worms from the control group. […] Compound number 1, provided at least 95% reduction in nematode infestation at a dose as low as 1 or 10 mg/kg.", "values": [
      {"smiles": "CC(Cn1nc2c(Cl)cc(Cl)c(Cl)c2n1)(NC(=O)c1ccc(OC(F)(F)F)cc1)C(N)=S", "note": "(stereo not drawn) [Compound 1, N-[1-Methyl-1-thiocarbamoyl-2-(4,5,7-trichloro-2H-benzotriazol-2-yl)-ethyl]-4-trifluoromethoxybenzamide]", "reduction in nematode infestation": "at least 95%"}
    ]},
    {"system": "Haemonchus contortus", "assay": "Method A: screening of compounds against Haemonchus contortus L1 larvae in microtitre plate (development to L3)", "conditions": "96 h, test concentration 0.01 ppm, 4 days assessment, 27° C., read-out: motility inhibition", "description": "(§1) Method A: Screening Method to Test Activity of Compounds Against Haemonchus contortus. Twenty L1 Haemonchus contortus larvae were added to wells of a microtitre plate containing a nutrient medium and the test compound in DMSO. The microtitre plate was then held at 27° C. where the L1 larvae were allowed to develop. An analysis was conducted at 4 days to determine successful development to the L3 stage. Larvae exposed to DMSO and no test compound served as controls. Compounds numbers 3, 4, 6 and 8 gave at least 90% motility inhibition at a test concentration of 0.15 ppm at the 4 days assessment. Compounds numbers 1, 2, 5 and 7 gave at least 90% motility inhibition at a test concentration of 0.01 ppm at the 4 days assessment.", "units": {"inhibition at 0.01 ppm": "%"}, "values": [
      {"smiles": "CC(Cn1nc2c(Cl)cc(Cl)c(Cl)c2n1)(NC(=O)c1ccc(OC(F)(F)F)cc1)C(N)=S", "note": "(stereo not drawn) [Compound 1, N-[1-Methyl-1-thiocarbamoyl-2-(4,5,7-trichloro-2H-benzotriazol-2-yl)-ethyl]-4-trifluoromethoxybenzamide]", "inhibition at 0.01 ppm": "≥ 90"},
      {"smiles": "CC(Cn1nc2c(Cl)cc(Cl)c(Cl)c2n1)(NC(=O)c1ccc(SC(F)(F)F)cc1)C(N)=S", "note": "(stereo not drawn) [Compound 2]", "inhibition at 0.01 ppm": "≥ 90"},
      {"smiles": "CC(COc1cc(C#N)ccc1C(F)(F)F)(NC(=O)c1ccc(SC(F)(F)F)cc1)C(N)=S", "note": "(stereo not drawn) [Compound 5]", "inhibition at 0.01 ppm": "≥ 90"},
      {"smiles": "CC(COc1cc(C#N)ccc1C(F)(F)F)(NC(=O)c1ccc(OC(F)(F)F)cc1)C(N)=S", "note": "(stereo not drawn) [Compound 7, N-[2-(5-Cyano-2-trifluoromethylphenoxy)-1-methyl-1-thiocarbamoyl-ethyl]-4-trifluoromethoxybenzamide]", "inhibition at 0.01 ppm": "≥ 90"}
    ]},
    {"system": "Haemonchus contortus", "assay": "Method A: screening of compounds against Haemonchus contortus L1 larvae in microtitre plate (development to L3)", "conditions": "96 h, test concentration 0.15 ppm, 4 days assessment, 27° C., read-out: motility inhibition", "description": "as §1", "units": {"inhibition at 0.15 ppm": "%"}, "values": [
      {"smiles": "CC(COc1ccc(C#N)cc1C(F)(F)F)(NC(=O)c1ccc(OC(F)(F)F)cc1)C(N)=S", "note": "(stereo not drawn) [Compound 3, N-[2-(4-Cyano-2-trifluoromethylphenoxy)-1-methyl-1-thiocarbamoyl-ethyl]-4-trifluoromethoxybenzamide]", "inhibition at 0.15 ppm": "≥ 90"},
      {"smiles": "CC(COc1ccc(C(N)=S)cc1C(F)(F)F)(NC(=O)c1ccc(OC(F)(F)F)cc1)C(N)=S", "note": "(stereo not drawn) [Compound 4, N-[1-Methyl-1-thiocarbamoyl-2-(4-thiocarbamoyl-2-trifluoromethylphenoxy)-ethyl]-4-trifluoromethoxybenzamide]", "inhibition at 0.15 ppm": "≥ 90"},
      {"smiles": "CC(COc1cc(C(N)=S)ccc1C(F)(F)F)(NC(=O)c1ccc(SC(F)(F)F)cc1)C(N)=S", "note": "(stereo not drawn) [Compound 6]", "inhibition at 0.15 ppm": "≥ 90"},
      {"smiles": "CC(COc1cc(C(N)=S)ccc1C(F)(F)F)(NC(=O)c1ccc(OC(F)(F)F)cc1)C(N)=S", "note": "(stereo not drawn) [Compound 8]", "inhibition at 0.15 ppm": "≥ 90"}
    ]}
  ]
}
